# Measured values reported in patent US20230399295A1, “COMPOSITIONS FOR INCREASING TISSUE REGENERATION AND DELAYING OR REDUCING GRANULOMA FORMATION” (THE BRIGHAM AND WOMEN'S HOSPITAL, INC., priority 2020, published 2023).
# Experiments:
# human PBMCs = test: Granuloma assay: human PBMCs with E. coli total protein extract-coupled sepharose beads; assay type: cell-based; conditions: single treatment 10 nM at time 0; scoring 0-4 at day 3; versus vehicle
# Description: FIG. 3: Resolvin (Rv) Peptido-Lipids Delay Human Granuloma Formation. Freshly isolated human PBMCs were incubated with E. coli total protein extract covalently coupled CNBr-activated sepharose beads and received a single treatment of either vehicle (0.1% methanol or ethanol), 10 nM RvD3, 10 nM RCTR1, or 10 nM 4,5-RCTR1 at time 0 and incubated for 6 days. A) Scoring of day 3 granuloma severity post-single treatment with either vehicle (0.1% methanol or ethanol), 10 nM RvD3, 10 nM RCTR1, or 10 nM 4,5-RCTR1. n=3 individual human donors. Mean±SEM. Unpaired two-tailed Student's t-test. **p<0.01, ***p<0.001 versus vehicle. B) Representative images of granuloma formation on day 3 after a single treatment with either vehicle (0.1% methanol or ethanol), 10 nM RvD3, 10 nM RCTR1, or 10 nM 4,5-RCTR1. […]
# E. coli (Serotype: 06:K2:H1) was grown overnight in Luria broth in an orbital shaker (400 rpm) at 37° C. […] Supernatant was taken before and after the coupling reaction and measured for protein content by BCA assay (Thermo Fisher Scientific) to determine the efficiency of the reaction. […]
# Freshly isolated PBMCs (1×10^6 cells/well) were treated with either vehicle (0.1% ethanol), RvD3 (10 nM), RCTR1 (10 nM) or 4,5-RCTR1 (10 nM) and E. coli total protein lysate-coated CNBr-activated sepharose beads simultaneously in 1 mL complete RPMI-1640. […] Granulomas were scored based on formation progression. […]
# [1] = tested on: Planaria (Dugesia japonica); test: Planaria regeneration after surgical injury; assay type: in vivo
# Description: Planaria were surgically injured post-ocular and received either vehicle (0.1% ethanol) or 10 nM 4,5-RCTR1 one-hour post-injury and imaged daily for six days. A) Representative images of Planaria regeneration from Day 1-6 post-surgical injury. B) Tissue regeneration indices (μm) from Day 1-6 post-surgically injured Planaria. C) Tissue regeneration rate (TRR, μm/day) is the rate (area of tissue regeneration/days at TRI50) to achieve 50% tissue regeneration after surgical injury. n=6 Planaria per group per day. Data represented as mean±SEM. Unpaired two-tailed Student's t-test. *p<0.05, **p<0.01, ***p<0.001, and ****p<0.0001 versus vehicle. Planaria (Dugesia japonica) were kept in water (Poland Spring, Poland, ME) at 20° c. All animals were starved for 7 days prior to surgery. Planaria were surgically injured post-ocularly and received either vehicle (0.1% ethanol) or 10 nM 4,5-RCTR1 in water one-hour post-injury. Tissue regeneration was monitored daily for six days via a Zeiss Axiovert 40 CFL Microscope (Jena, Germany) equipped with a Lumenera Infinity 3 Camera (Ottawa, Canada) running Image-Pro Plus (Version 7.0.0.591, Media Cybernetics, Rockville, MD, USA). Regenerated tissue was quantified using ImageJ software (NIH). The tissue regeneration index (TRI) normalizes the total area of regenerated tissue by the post-ocular width. The TRI50 is the amount of time it takes to reach 50% of the maximum […]. […] FIGS. 2A, 2B and 2C: Planaria were surgically injured post-ocular and received either vehicle (0.1% ethanol) or 4,5-RCTR1 one-hour post-injury and imaged daily for six days. 2A) Representative images of Planaria regeneration from Day 1-6 post-surgical injury. 2B) Tissue regeneration indices (μm) from Day 1-6 post-surgically injured Planaria. 2C) Tissue regeneration rate (TRR, μm/day) is the rate (area of tissue regeneration/days at TRI50) to achieve 50% tissue regeneration after surgical injury. n=6 Planaria per group per day. Data represented as mean±SEM. Unpaired two-tailed Student's t-test. *p<0.05, **p<0.01, ***p<0.001, and ****p<0.0001 versus vehicle.
# [2] = Half-life in the body (statement only, no method); conditions: in vivo
compound,measurement,setting,value
"CC/C=C\C[C@H](O)/C=C/C=C\C\C=C/C=C/C=C/[C@@H](SC[C@H](NC(=O)CC[C@H](N)C(=O)O)C(=O)NCC(=O)O)[C@@H](O)CCC(=O)O [4,5-RCTR1, 5-glutathionyl, 4,17-hydroxy-docosahexaenoic acid]",granuloma formation,human PBMCs,significantly delays granuloma formation
same,amount of tissue regenerated,[1]; in vivo,increases the amount of tissue regenerated
same,time required for tissue regeneration,[1]; in vivo,accelerates the time required for tissue regeneration
same,regenerative action / planaria regeneration,"[1]; surgically injured post-ocular, 10 nM one-hour post-injury, imaged daily for six days, versus vehicle",regenerative action
same,half-life in the body,[2],relatively sort half-life
